Test results published in doi:10.1101/2024.08.19.608619, “Discovery of potent SARS-CoV-2 nsp3 macrodomain inhibitors uncovers lack of translation to cellular antiviral response” (bioRxiv, 2024).
“And” between values parts separate entries of the source, which are not always exact repeats. Equal entries are not always repeated. Where two headings read alike, the source gives them in different places.

Experiments:
[1] = system: HeLa-ACE2 cells; conditions: for perc_max_measured: highest measured response of the dose series; for perc_min_measured: lowest measured response of the dose series
[2] = target: T1, beta2 (h) (Homo sapiens, UniProt P07550); experiment: In vitro CEREP profiling, beta2 (h) (antagonist radioligand); format: binding; conditions: test compound 10 uM, read-out: perc_inhibition (% inhibition of the binding of a ligand specific for each target)
T1 construct: purchased Eurofins Cerep (SafetyScreen44), recognised from the panel format
Excerpt: (§1) Supplement media-1.zip/Safety_Panel_Profile.csv, table | column: perc_inhibition

[3] = In vitro rat hepatocyte stability; format: in vitro ADME
Excerpt: (§2) Supplement media-1.zip/Hepatocyte_Stability.csv, table | column: clint; t_half

[4] = target: T2, CB2 (h) (Homo sapiens, UniProt P34972); experiment: In vitro CEREP profiling, CB2 (h) (agonist radioligand); format: binding; conditions: test compound 10 uM, read-out: perc_inhibition (% inhibition of the binding of a ligand specific for each target)
T2 construct: purchased Eurofins Cerep (SafetyScreen44), recognised from the panel format
Excerpt: as §1

[5] = system: SARS-CoV-2, isolate USA-WA1/2020; experiment: microbe, parasite or virus in culture; format: cell-based
[6] = target: T3, 5-HT1B (h) (Homo sapiens, UniProt P28222); experiment: In vitro CEREP profiling, 5-HT1B (h) (antagonist radioligand); format: binding; conditions: test compound concentration 10 uM, read-out: perc_inhibition (% inhibition of the binding of a ligand specific for each target)
T3 construct: purchased Eurofins Cerep (SafetyScreen44), recognised from the panel format
Excerpt: as §1

[7] = target: T4, KOR receptor (Homo sapiens, UniProt P41145); experiment: Eurofins CEREP panel, KOR; format: binding
T4 construct: purchased Eurofins Cerep (SafetyScreen44), recognised from the panel format

[8] = system: KV channel; experiment: In vitro CEREP profiling, KV channel (antagonist radioligand); format: binding; conditions: test compound concentration 10 uM
Excerpt: as §1

[9] = target: T5, CB1 (h) (Homo sapiens, UniProt P21554); experiment: In vitro CEREP profiling, CB1 (h) (agonist radioligand); format: binding; conditions: test compound 10 uM, read-out: perc_inhibition (% inhibition of the binding of a ligand specific for each target)
T5 construct: purchased Eurofins Cerep (SafetyScreen44), recognised from the panel format
Excerpt: as §1

[10] = target: T6, A2A (h) (Homo sapiens, UniProt P29274); experiment: In vitro CEREP profiling, A2A (h) (agonist radioligand); format: binding; conditions: test compound 10 uM, read-out: perc_inhibition (% inhibition of the binding of a ligand specific for each target)
T6 construct: purchased Eurofins Cerep (SafetyScreen44), recognised from the panel format
Excerpt: as §1

[11] = target: T7, H1 (h) (Homo sapiens, UniProt P35367); experiment: In vitro CEREP profiling, H1 (h) (antagonist radioligand); format: binding; conditions: test compound concentration 10 uM, read-out: perc_inhibition (% inhibition of the binding of a ligand specific for each target)
T7 construct: purchased Eurofins Cerep (SafetyScreen44), recognised from the panel format
Excerpt: as §1

[12] = target: T8, mu (MOP) (h) (Homo sapiens, UniProt P35372); experiment: In vitro CEREP profiling, mu (MOP) (h) (agonist radioligand); format: binding; conditions: test compound concentration 10 uM, read-out: perc_inhibition (% inhibition of the binding of a ligand specific for each target)
T8 construct: purchased Eurofins Cerep (SafetyScreen44), recognised from the panel format
Excerpt: as §1

[13] = In vitro human hepatocyte stability; format: in vitro ADME
Excerpt: as §2

[14] = target: T9, V1a (h) (Homo sapiens, UniProt P37288); experiment: In vitro CEREP profiling, V1a (h) (agonist radioligand); format: binding; conditions: test compound concentration 10 uM, read-out: perc_inhibition, % inhibition of the binding of a ligand specific for each target
T9 construct: purchased Eurofins Cerep (SafetyScreen44), recognised from the panel format
Excerpt: as §1

[15] = target: T10, ETA (h) (Homo sapiens, UniProt P25101); experiment: In vitro CEREP profiling, ETA (h) (agonist radioligand); format: binding; conditions: test compound 10 uM, read-out: perc_inhibition (% inhibition of the binding of a ligand specific for each target)
T10 construct: purchased Eurofins Cerep (SafetyScreen44), recognised from the panel format
T10 sequence (P25101 21-427): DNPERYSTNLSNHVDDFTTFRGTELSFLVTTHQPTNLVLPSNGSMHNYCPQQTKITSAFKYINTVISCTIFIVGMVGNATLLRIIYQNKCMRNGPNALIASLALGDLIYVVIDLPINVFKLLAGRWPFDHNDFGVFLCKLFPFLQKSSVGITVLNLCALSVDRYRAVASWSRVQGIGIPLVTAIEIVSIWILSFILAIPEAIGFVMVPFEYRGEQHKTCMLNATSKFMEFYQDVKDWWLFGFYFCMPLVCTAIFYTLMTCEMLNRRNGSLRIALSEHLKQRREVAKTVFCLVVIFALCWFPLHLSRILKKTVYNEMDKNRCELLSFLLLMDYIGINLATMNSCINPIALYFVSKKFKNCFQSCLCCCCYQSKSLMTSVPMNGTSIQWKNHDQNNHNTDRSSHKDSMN
Excerpt: as §1

[16] = target: T11, PDE3A (h) (Homo sapiens, UniProt Q14432); experiment: In vitro CEREP profiling, PDE3A (h); format: biochemical; conditions: test compound concentration 10 uM; Enzyme and Cell-based assays; read-out: perc_inhibition: % inhibition of control enzyme activity, PDE3A (h)
T11 construct: purchased Eurofins Cerep (SafetyScreen44), recognised from the panel format
Excerpt: as §1

[17] = target: T12, COX2(h) (Homo sapiens, UniProt P35354); experiment: In vitro CEREP profiling, COX2(h); format: biochemical; conditions: test compound concentration 10 uM; Enzyme and Cell-based assays; read-out: perc_inhibition: % inhibition of control enzyme activity, COX2(h)
T12 construct: purchased Eurofins Cerep (SafetyScreen44), recognised from the panel format
T12 sequence (P35354 18-604): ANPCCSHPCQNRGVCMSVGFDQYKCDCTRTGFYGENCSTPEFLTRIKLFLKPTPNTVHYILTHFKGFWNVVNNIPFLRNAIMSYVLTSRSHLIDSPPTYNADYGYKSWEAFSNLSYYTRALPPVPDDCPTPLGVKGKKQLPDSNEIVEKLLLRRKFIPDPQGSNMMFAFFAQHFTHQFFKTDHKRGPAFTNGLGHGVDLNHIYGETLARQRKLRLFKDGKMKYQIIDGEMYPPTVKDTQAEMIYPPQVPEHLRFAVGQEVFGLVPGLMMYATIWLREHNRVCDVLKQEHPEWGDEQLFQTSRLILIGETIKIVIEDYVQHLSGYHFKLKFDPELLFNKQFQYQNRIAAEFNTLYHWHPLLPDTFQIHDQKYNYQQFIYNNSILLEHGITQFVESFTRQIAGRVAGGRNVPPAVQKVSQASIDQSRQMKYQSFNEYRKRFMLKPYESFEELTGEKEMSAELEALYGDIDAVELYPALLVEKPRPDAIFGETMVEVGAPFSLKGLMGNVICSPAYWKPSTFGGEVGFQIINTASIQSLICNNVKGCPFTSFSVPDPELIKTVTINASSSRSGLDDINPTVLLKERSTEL
Excerpt: as §1

[18] = system: BZD (central); experiment: In vitro CEREP profiling, BZD (central) (agonist radioligand); format: binding; conditions: test compound 10 uM
Excerpt: as §1

[19] = protocol HeLa-ACE2 cytotoxicity
[20] = HeLa-ACE2 SARS-CoV-2 antiviral effect without P-gp inhibitor, maximum measured response of dose series
[21] = HeLa-ACE2 SARS-CoV-2 antiviral effect without P-gp inhibitor, minimum measured response of dose series
[22] = Severe acute respiratory syndrome coronavirus 2, HeLa-ACE2

T4 sequence (P41145 whole entry): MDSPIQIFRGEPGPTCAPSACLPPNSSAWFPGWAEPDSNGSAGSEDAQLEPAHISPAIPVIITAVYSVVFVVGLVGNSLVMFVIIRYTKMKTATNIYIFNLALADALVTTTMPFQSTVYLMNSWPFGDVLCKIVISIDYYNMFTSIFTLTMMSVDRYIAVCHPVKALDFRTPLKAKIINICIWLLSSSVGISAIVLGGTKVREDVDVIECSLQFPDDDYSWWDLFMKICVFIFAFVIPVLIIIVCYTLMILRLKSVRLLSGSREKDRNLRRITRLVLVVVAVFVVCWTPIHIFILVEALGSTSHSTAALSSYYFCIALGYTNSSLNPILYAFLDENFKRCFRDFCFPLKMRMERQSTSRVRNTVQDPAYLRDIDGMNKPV
T8 sequence (P35372 whole entry): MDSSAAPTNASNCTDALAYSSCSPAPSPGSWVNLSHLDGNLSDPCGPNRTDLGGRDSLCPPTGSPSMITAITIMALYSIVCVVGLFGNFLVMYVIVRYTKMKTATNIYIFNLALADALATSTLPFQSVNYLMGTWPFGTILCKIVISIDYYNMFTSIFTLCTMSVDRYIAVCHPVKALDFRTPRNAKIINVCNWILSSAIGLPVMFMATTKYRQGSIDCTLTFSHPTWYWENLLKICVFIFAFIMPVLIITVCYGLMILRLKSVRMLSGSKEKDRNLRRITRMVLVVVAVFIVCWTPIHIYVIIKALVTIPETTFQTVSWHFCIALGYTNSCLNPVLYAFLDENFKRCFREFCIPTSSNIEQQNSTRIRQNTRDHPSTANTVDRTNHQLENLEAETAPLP
T9 sequence (P37288 whole entry): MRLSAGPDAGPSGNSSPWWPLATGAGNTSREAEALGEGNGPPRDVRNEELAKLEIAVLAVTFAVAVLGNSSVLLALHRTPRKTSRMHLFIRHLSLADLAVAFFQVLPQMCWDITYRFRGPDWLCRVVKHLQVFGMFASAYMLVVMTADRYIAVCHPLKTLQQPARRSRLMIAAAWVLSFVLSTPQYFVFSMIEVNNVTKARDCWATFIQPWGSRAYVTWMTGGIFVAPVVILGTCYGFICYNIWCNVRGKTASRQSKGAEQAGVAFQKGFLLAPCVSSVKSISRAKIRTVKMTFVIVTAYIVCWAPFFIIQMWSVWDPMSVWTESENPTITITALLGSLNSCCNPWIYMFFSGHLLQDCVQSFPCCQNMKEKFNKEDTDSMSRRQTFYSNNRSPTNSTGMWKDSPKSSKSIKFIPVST
T5 sequence (P21554 whole entry): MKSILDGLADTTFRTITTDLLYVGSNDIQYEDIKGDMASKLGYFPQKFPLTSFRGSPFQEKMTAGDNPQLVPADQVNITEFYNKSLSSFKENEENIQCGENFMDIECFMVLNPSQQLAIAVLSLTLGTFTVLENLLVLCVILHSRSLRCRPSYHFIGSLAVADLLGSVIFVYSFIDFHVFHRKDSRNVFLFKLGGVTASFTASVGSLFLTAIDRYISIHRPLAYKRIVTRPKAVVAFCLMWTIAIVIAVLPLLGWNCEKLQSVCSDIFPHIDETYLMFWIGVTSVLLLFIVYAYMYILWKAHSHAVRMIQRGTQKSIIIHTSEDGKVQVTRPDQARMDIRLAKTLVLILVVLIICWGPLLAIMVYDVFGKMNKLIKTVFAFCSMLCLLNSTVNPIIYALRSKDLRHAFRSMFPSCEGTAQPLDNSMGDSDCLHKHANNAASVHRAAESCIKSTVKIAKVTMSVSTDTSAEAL
T2 sequence (P34972 whole entry): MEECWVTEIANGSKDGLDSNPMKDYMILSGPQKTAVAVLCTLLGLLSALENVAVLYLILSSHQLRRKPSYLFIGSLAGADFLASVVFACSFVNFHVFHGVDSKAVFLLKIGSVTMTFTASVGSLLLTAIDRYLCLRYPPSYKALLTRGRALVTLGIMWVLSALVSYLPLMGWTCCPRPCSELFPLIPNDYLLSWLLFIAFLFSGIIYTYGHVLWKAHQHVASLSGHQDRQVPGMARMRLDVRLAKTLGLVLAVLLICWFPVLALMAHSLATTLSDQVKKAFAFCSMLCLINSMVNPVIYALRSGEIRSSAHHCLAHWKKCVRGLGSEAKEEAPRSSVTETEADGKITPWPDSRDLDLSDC
T11 sequence (Q14432 whole entry): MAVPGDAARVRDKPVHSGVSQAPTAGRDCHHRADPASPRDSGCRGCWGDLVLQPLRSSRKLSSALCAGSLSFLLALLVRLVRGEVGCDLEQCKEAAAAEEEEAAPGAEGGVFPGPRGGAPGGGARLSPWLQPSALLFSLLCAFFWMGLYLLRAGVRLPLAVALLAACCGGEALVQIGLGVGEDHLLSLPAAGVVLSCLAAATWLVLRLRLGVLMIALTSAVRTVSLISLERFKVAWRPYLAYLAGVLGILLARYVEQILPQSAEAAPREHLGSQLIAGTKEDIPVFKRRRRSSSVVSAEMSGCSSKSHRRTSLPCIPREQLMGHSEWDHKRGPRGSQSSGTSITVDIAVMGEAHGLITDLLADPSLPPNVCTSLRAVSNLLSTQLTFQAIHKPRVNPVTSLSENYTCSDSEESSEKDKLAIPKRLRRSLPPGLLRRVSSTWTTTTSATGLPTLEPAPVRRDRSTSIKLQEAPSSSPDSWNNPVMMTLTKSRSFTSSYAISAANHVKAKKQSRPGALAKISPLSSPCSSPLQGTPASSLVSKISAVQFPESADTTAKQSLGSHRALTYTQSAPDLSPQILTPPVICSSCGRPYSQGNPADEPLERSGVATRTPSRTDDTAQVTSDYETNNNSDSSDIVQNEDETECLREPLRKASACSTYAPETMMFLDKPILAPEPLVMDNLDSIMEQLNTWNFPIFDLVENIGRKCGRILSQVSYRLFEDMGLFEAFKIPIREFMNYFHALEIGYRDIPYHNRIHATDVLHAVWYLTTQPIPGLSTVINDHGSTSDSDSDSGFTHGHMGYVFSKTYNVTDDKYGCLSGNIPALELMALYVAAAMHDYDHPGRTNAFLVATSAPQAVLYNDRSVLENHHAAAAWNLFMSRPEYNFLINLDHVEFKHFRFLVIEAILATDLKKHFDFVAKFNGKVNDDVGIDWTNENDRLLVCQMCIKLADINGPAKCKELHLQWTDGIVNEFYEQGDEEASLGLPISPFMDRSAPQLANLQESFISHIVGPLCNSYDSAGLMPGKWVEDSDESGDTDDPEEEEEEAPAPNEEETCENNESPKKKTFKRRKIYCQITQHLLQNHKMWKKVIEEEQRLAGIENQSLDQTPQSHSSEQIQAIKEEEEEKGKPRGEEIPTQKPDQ
T7 sequence (P35367 whole entry): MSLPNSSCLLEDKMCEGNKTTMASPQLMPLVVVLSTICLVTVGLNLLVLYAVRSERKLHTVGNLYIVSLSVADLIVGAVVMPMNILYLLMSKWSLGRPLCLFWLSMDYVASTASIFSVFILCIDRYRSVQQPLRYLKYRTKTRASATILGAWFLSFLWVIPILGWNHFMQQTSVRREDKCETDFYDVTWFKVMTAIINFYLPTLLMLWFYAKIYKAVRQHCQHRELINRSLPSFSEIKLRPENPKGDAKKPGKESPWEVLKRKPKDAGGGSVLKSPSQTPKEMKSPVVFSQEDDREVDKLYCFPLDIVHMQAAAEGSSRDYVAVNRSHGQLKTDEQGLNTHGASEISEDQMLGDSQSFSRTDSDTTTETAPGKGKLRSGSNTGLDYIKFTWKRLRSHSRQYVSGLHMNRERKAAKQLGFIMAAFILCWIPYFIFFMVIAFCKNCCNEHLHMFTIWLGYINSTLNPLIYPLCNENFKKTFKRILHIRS
T1 sequence (P07550 whole entry): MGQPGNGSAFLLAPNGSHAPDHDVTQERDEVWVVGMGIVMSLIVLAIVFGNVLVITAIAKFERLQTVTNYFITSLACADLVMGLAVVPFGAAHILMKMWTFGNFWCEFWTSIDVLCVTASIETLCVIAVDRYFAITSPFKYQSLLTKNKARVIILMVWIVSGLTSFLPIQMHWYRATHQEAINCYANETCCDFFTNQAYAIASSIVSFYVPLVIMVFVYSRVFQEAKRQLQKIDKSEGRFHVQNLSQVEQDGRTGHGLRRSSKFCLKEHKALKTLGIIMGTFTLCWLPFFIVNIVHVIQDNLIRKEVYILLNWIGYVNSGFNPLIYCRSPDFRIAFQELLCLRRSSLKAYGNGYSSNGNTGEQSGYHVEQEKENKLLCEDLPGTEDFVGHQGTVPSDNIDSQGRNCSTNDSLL
T3 sequence (P28222 whole entry): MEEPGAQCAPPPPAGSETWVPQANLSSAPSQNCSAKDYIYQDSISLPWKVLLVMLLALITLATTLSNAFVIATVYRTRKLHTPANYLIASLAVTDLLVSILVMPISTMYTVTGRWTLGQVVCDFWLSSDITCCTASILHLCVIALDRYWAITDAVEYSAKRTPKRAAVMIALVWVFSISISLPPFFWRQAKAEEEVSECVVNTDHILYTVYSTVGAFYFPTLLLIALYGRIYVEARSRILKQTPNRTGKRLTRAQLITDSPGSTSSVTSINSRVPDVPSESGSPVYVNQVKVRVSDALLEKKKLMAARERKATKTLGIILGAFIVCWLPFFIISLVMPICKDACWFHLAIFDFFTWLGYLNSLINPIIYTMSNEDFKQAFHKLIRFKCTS
T6 sequence (P29274 whole entry): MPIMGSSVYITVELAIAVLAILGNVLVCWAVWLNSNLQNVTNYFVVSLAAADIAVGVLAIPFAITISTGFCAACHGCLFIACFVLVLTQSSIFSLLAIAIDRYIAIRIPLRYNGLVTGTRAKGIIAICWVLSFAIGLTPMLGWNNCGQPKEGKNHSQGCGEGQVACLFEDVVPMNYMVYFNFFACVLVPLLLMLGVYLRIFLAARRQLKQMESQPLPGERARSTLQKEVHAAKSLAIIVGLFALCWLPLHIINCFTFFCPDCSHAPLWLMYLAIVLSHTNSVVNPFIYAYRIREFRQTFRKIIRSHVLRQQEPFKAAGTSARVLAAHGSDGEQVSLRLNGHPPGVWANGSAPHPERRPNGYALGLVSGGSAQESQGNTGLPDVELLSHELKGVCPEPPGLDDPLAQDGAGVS

With `CC(C)C(Nc1ncnc2[nH]c(C(=O)NC3CCN(C)C3)cc12)c1ccc2c(c1)S(=O)(=O)CCC2` (centres unmarked) [ASAP-0011198] the cc10 ([1]; HeLa-ACE2 cytotoxicity) was greater than 20.0 µM, the perc_max_measured ([1]; HeLa-ACE2 cytotoxicity) was 148.177% and the perc_min_measured ([1]; HeLa-ACE2 cytotoxicity) was 90.706%. The CC50 [1, 19] was greater than 20 µM, the cc10 [1, 19] was greater than 20.0 µM and the perc_max_measured [1, 19] was 87.174%. For the same molecule, the perc_min_measured [1, 19] was 78.327%, the inhibition at 10 µM [2] was -3% and the clint [3] was 9.3 uL/min/1E6 cells. For the same molecule, the t_half [3] was 145.0 min and 74.8 min, the hepatocyte CLint ([3]; rat, hepatocytes) was 4.78 µL/min/1e6 cells and the inhibition at 10 µM [4] was -8%. For the same molecule, the perc_max_measured ([5]; HeLa-ACE2 SARS-CoV-2 antiviral effect without P-gp inhibitor, maximum measured response) was 109.068%, the perc_max_measured [5, 20] was 108.327% and the perc_min_measured ([5]; HeLa-ACE2 SARS-CoV-2 antiviral effect without P-gp inhibitor, minimum measured response) was 93.8%. For the same molecule, the perc_min_measured [5, 21] was 87.557%, the EC50 [5, 22] was greater than 20 µM and the EC90 [5, 22] was greater than 20 µM. The EC50 ([5]; Severe acute respiratory syndrome coronavirus 2, HeLa-ACE2, read-out: HelaACE2 EC50) was greater than 20 µM, the inhibition at 10 µM [6] was 17% and the “off-target activity at KOR receptor, in words” value ([7]; CEREP panel) was “moderate”. The inhibition at 10 µM ([7]; kappa (h) (KOP) (agonist radioligand), test compound concentration 10 uM, read-out: perc_inhibition (% inhibition of the binding of a ligand specific for each target)) was 78%, the “perc_inhibition (% inhibition of the binding of a ligand specific for each target)” value [8] was 2% and the inhibition at 10 µM [9] was -10%. The inhibition at 10 µM [10] was -4%, the inhibition at 10 µM [11] was 2% and the inhibition at 10 µM [12] was 7%. For the same molecule, the t_half [13] was greater than 231.0 min, the hepatocyte CLint ([13]; hepatocytes) was less than 3 µL/min/1e6 cells and the inhibition at 10 µM [14] was 6%. For the same molecule, the inhibition at 10 µM [15] was -6%, the inhibition at 10 µM [16] was 4% and the inhibition at 10 µM [17] was 4%. For the same molecule, the “perc_inhibition (% inhibition of the binding of a ligand specific for each target)” value [18] was 38%.
Work on `CC(C)C(Nc1ncnc2[nH]ccc12)c1ccc2c(c1)S(=O)(=O)CCC2` (centres unmarked) [ASAP-0008327] yielded a cc10 [1, 19] greater than 50.0 µM, a perc_max_measured [1, 19] of 104.85% and a perc_min_measured [1, 19] of 98.585%. It also gave a perc_max_measured [5, 20] of 112.988%, a perc_min_measured [5, 21] of 76.031% and an EC50 ([5]; Severe acute respiratory syndrome coronavirus 2, HeLa-ACE2 SARS-CoV-2 antiviral effect without P-gp inhibitor, read-out: ec50) greater than 50 µM. The EC90 ([5]; Severe acute respiratory syndrome coronavirus 2, HeLa-ACE2 SARS-CoV-2 antiviral effect without P-gp inhibitor, read-out: ec90) was greater than 50 µM.
